Results as given in US20220202905A1, “COMPOSITION FOR PREVENTING OR TREATING NEUROTROPHIC KERATITIS WHICH CONTAINS PACAP PEPTIDE OR STABILIZED PACAP PEPTIDE” (SENJU PHARMACEUTICAL CO., LTD., priority 2019, published 2022).
Square brackets hold non-standard residues; d marks the D form. Peptide text beside a SMILES is read from it. Ala(1H-tetrazol-5-yl) = N[C@@H](Cc1nnn[nH]1)C(=O)O

Legend:
[1] = Peptide stability test, phosphate buffer (pH 7.0), 40° C. storage, HPLC remaining rate; format: physicochemical; conditions: Table 4; 100 μM in phosphate buffer pH 7.0; HPLC conditions 1
Method: Peptides 1 and 3 to 5 synthesized in Example 2 were weighed and dissolved in phosphate buffer (pH 7.0) to prepare 1.0 mM peptide solutions. The 1.0 mM peptide solutions were then diluted with phosphate buffer to 100 μM. After filtering with Chromatdisk (product of Merck Millipore, Millex-GV, 0.22 μm), each filtrate was dispensed into an LC vial (Waters Deactivated […] prepared peptide solutions were incubated for one month or 2 months in a 40° C. thermostatic bath to obtain stored samples. A simultaneously prepared sample among the peptide solutions that was not stored was used as a standard sample (initial sample). The standard sample and the stored samples were stored at -30° C. until sample analysis. Using the total weight of the aqueous peptide solution and storage vessel as the specimen weight, measurements were recorded as the specimen weights before storage and the specimen weights after storage under different storage conditions. The empty weight of the storage vessel was also measured, and the moisture permeability was determined by the following formula. After stirring the standard sample and the stored samples with a vortex mixer, each peptide solution was transferred to an HPLC vial (Deactivated Qsert vial by Waters Co.). Reverse-phase HPLC (HPLC system: Prominence by Shimadzu Corp.) was conducted under the conditions shown in Table 3 below for analysis of the peptide solutions, and chromatograms were obtained. Guard column: XSelect CSH C18 by Waters Co., 5 μm, 4.6×20 mm Guard Cartridge Detection wavelength: 220 nm Mobile phase A: 0.1% formic acid aqueous solution Mobile phase B: 0.1% acetonitrile formate solution Measuring time: 30 minutes Measuring sample injection rate: 50 μL Flow rate: 1.0 mL/min Sample cooler: 4° C. Column temperature: 40° C. Mobile phase delivery: The mixing ratio of mobile phase A and mobile phase B was varied as shown in Table 3 for linear concentration gradient control. The peak area value for the peptide in the chromatogram was calculated, and the remaining rate (remaining rate before correction for water) was calculated using formula (2). The remaining rate after correction for water was also calculated from the remaining rate before correction for water using formula (3), taking into account the moisture permeability of the vessel. Peptides 10 and 11 synthesized in Example 2 were weighed and dissolved in phosphate buffer (pH 7.0) to prepare 1.0 mM peptide solutions. Each solution was filtered with a Chromatdisk (product of Merck Millipore. Millex-GV, 0.22 μm). Each filtrate was diluted to 100 μM with phosphate buffer (pH 7.0) and dispensed into a tube (Protein LoBind Tube by Eppendorf Co.). The prepared peptide solutions were incubated for one month or 2 months in a 40° C. thermostatic bath to obtain stored samples. A simultaneously prepared sample among the peptide solutions that was not stored was used as a standard sample (initial sample). The standard sample and the stored samples were stored at -30° C. until sample analysis. The remaining rate after correction for water for each peptide among the stored samples was measured in the same manner as Example 4, and the results are shown in Table 8.

[2] = Peptide stability test, Tris buffer (pH 7.0), 60° C. storage, HPLC remaining rate; format: physicochemical; conditions: Table 6; 100 μM in Tris buffer pH 7.0; HPLC conditions 2
Procedure, shortened: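 Peptides at 100 μM in Tris buffer (pH 7.0) stored 1 or 2 weeks at 60° C.; unstored sample kept at −30° C. as initial reference. Remaining peptide quantified by reversed-phase HPLC at 220 nm (formic acid/acetonitrile gradient, 40° C. column), as water-corrected remaining rate.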

CC[C@H](C)[C@H](NC(=O)CNC(=O)[C@H](CC(=O)O)NC(=O)[C@H](CO)NC(=O)[C@@H](N)Cc1cnc[nH]1)C(=O)N[C@@H](Cc1ccccc1)C(=O)N[C@H](C(=O)N[C@@H](CC(=O)O)C(=O)N[C@@H](CO)C(=O)N[C@@H](Cc1ccc(O)cc1)C(=O)N[C@@H](CO)C(=O)N[C@@H](CCCNC(=N)N)C(=O)N[C@@H](Cc1ccc(O)cc1)C(=O)N[C@@H](CCCNC(=N)N)C(=O)N[C@@H](CCCCN)C(=O)N[C@@H](CCC(N)=O)C(=O)N[C@@H](CCSC)C(=O)N[C@@H](C)C(=O)N[C@H](C(=O)N[C@@H](CCCCN)C(=O)N[C@@H](CCCCN)C(=O)N[C@@H](Cc1ccc(O)cc1)C(=O)N[C@@H](CC(C)C)C(=O)N[C@@H](C)C(=O)N[C@@H](C)C(=O)N[C@H](C(=O)N[C@@H](CC(C)C)C(N)=O)C(C)C)C(C)C)[C@@H](C)O [Peptide 1, reference compound]
remaining rate after correction for water, 40° C., 1 month preservation [1]: 37.4%
remaining rate after correction for water, 40° C., 2 months preservation [1]: 21.3%

CC[C@H](C)[C@H](NC(=O)CNC(=O)[C@H](Cc1nnn[nH]1)NC(=O)[C@H](CO)NC(=O)[C@H](Cc1c[nH]cn1)NC(C)=O)C(=O)N[C@@H](Cc1ccccc1)C(=O)N[C@H](C(=O)N[C@@H](Cc1nnn[nH]1)C(=O)N[C@@H](CO)C(=O)N[C@@H](Cc1ccc(O)cc1)C(=O)N[C@@H](CO)C(=O)N[C@@H](CCCNC(=N)N)C(=O)N[C@@H](Cc1ccc(O)cc1)C(=O)N[C@@H](CCCNC(=N)N)C(=O)N[C@@H](CCCCN)C(=O)N[C@@H](CCC(N)=O)C(=O)N[C@@H](CC(C)C)C(=O)N[C@@H](C)C(=O)N[C@H](C(=O)N[C@@H](CCCCN)C(=O)N[C@@H](CCCCN)C(=O)N[C@@H](Cc1ccc(O)cc1)C(=O)N[C@@H](CC(C)C)C(=O)N[C@@H](C)C(=O)N[C@@H](C)C(=O)N[C@H](C(=O)N[C@@H](CC(C)C)C(N)=O)C(C)C)C(C)C)[C@@H](C)O [Peptide 9] (Ac-HS[Ala(1H-tetrazol-5-yl)]GIFT[Ala(1H-tetrazol-5-yl)]SYSRYRKQLAVKKYLAAVL-NH2)
remaining rate after correction for water, 60° C., 1 week preservation [2]: 98.4%
remaining rate after correction for water, 60° C., 2 weeks preservation [2]: 92.8%
